According to ChEMBL document CHEMBL1141058, “Squaric monoamide monoester as a new class of reactive immunization hapten for catalytic antibodies” (Bioorg Med Chem Lett, 2005):

What was measured:
[1] = tested on: Monoclonal antibody (mAb) 3C8; test: Ratio of reaction constant of paraoxon hydrolysis catalysed by monoclonal antibody 3C8 to that of uncatalysed
[2] = tested on: Monoclonal antibody (mAb) 2D4; test: Ratio of reaction constant of paraoxon hydrolysis catalysed by monoclonal antibody 2D4 to that Michaelis-Menten's constant
[3] = tested on: Monoclonal antibody (mAb) 3C8; test: Reaction constant of paraoxon hydrolysis catalyse by monoclonal antibody, 3C8 determined in 50 mM bicine with 50 mM NaCl, pH 8.0, 5% DMSO cosolvent at 23 degree C
[4] = tested on: Monoclonal antibody (mAb) 3C8; test: Ratio of reaction constant of paraoxon hydrolysis catalysed by monoclonal antibody 3C8 to that Michaelis-Menten's constant
[5] = tested on: Monoclonal antibody (mAb) 3C8; test: Michaelis-Menten constant of monoclonal antibody, 3C8 for paraoxon hydrolysis determined in 50 mM bicine with 50 mM NaCl, pH 8.0, 5% DMSO cosolvent at 23 degree C
[6] = tested on: Monoclonal antibody (mAb) 2D4; test: Reaction constant of paraoxon hydrolysis catalyse by monoclonal antibody, 2D4 determined in 50 mM bicine with 50 mM NaCl, pH 8.0, 5% DMSO cosolvent at 23 degree C
[7] = tested on: Monoclonal antibody (mAb) 2D4; test: Michaelis-Menten's constant of monoclonal antibody, 2D4 for paraoxon hydrolysis determined in 50 mM bicine with 50 mM NaCl, pH 8.0, 5% DMSO cosolvent at 23 degree C
[8] = tested on: Monoclonal antibody (mAb) 2D4; test: Ratio of reaction constant of paraoxon hydrolysis catalysed by monoclonal antibody 2D4 to that of uncatalysed

k cat/Kuncat [1]: 2060 | k cat/Km [2]: 0.0322 M⁻¹ s⁻¹ | k cat [3]: 3.38e-05 s⁻¹ | k cat/Km [4]: 0.0262 M⁻¹ s⁻¹ | Km [5]: 1290 µM | k cat [6]: 3.8e-05 s⁻¹ | Km [7]: 1180 µM | k cat/Kuncat [8]: 2310
SMILES: CCOc1c(Nc2ccc(NC(=O)CCCC(=O)O)cc2)c(=O)c1=O
